Values of other authors as cited in US20090148502A1, “COMPOSITIONS AND METHODS FOR TREATING LACERATIONS, ABRASIONS, AVULSIONS, BURNS, ULCERS, AND CASES OF EXCESSIVE BLEEDING” (Hemo Nanoscience, LLC, priority 2006, published 2009).

Experiments:
wound = details: 0.04% (wt/wt), topically applied
[1] = in vivo

| Compound | effect on healing time (wound) | duration of action [1] |
| --- | --- | --- |
| Human EGF: human epidermal growth factor | successful in reducing the healing time |  |
| CCCCN1CCCCC1C(=O)Nc1c(C)cccc1C (centres unmarked) [bupivacaine] |  | 6 to 8 h |
